Molecules are shown by their SMILES.

In one series the test system is HL-60 cells. The series is described as follows: HL-60 cell differentiation (oxidative burst via NBT reduction). The format is cell-based. The note with it: Homo sapiens, 72 h, 3 days, NBT reduction at 540 nm, mean of 3 wells, read-out: ED50 (concentration leading to 50% of maximal differentiation achieved with 100-1000 nM calcitriol). The method, then:
The induction of differentiation of HL-60 cells was assayed by measuring their oxidative burst potential via the reduction of NBT (Nitrobluetetrazolium).
30,000 cells/90 μl of RPMI/FCS were seeded into flat-bottomed microtiter wells. 10 μl of vitamin D derivatives diluted in complete medium were added at the same time to yield final concentrations between 10^-11 and 10^-6 M (stock solutions of 10^-2 M in ethanol were kept at -20° C. and protected from light).
Values were expressed as percent of maximal differentiation achieved with 100-1000 nM calcitriol in the same experiment.

The next series deals with HaCaT cells. The series is described as follows: Inhibition of keratinocyte proliferation (3H-thymidine uptake, HaCaT). In kind it is cell-based. The note with it: HaCaT human keratinocyte line, 6 days of culture. How it is done: HaCaT cell line--The immortalized human cell line HaCaT was used. ^3 H-thymidine incorporation was measured in exponentially growing cultures after 6 days of culture in presence of the test compound.
Cell culture--HaCaT cells were cultured in Dulbecco's Modified Eagle Medium (DMEM) and Nutrient Mixture Ham's F12 (F12), 3:1 (v/v, ICN) containing 4.5 g/l glucose and supplemented with 10% fetal calf serum (Gibco, FCS), L-glutamine (Gibco, 2mM), penicillin (Gibco, 50 UI/ml), streptomycin (Gibco, 50 μg/ml), EGF (10 ng/ml), hydrocortisone (400 ng/ml), cholera toxin (8.5 ng/ml) and insulin (5 ng/ml). The cells were maintained in a humidified atmosphere containing 5% CO2 and 95% air and passaged every 3-4 days.
Inhibition of ^3 H-thymidine uptake--HaCaT cells (250 cells in complete culture medium) were seeded into 96-well culture dishes and incubated at 37° C. with 5% CO2 and 95% air for 6 days. Inhibitors, dissolved at 10× concentration in 1% ethanol, were added immediately at the beginning of the assay. ^3 H-thymidine (5 Ci/mmol, Amersham) was added at a concentration of 1 μCi/well and cells were pulse-labelled for the last 6 hours of the growth period. Cells were then trypsinized for 10 minutes at 37° C. under a vigorous agitation and harvested on to a 96-well GF/C filter plate (Uni Filter, Packard) using a Micro Mate 196 cell harvester (Packard). After drying at 40° C. under vacuum for 20-30 minutes, 2 μl of Micro Scint 0 scintillator (Packard) were added and the radioactivity bound to the filters was counted on a TOP COUNT (Packard).

A short description of series [1]: Calcium liability (tolerance test in mice). The note with it: mouse, in vivo, sc, daily subcutaneous administration for 4 consecutive days, 5 day treatment period, read-out: HTD (highest tolerated dose: dose which results in zero weight gain). An excerpt:
Profound changes in calcium homeostasis strongly affect the weight development of the animals. This parameter was used as a primary test for tolerance.
Mice (25-30 g body weight) received daily subcutaneous administrations of the vitamin D derivative for 4 consecutive days. Body weight was registered just before and at the end of a […] treatment period. The "highest tolerated dose" (HTD) is the dose which results in zero weight gain during this treatment period.

Another series deals with sebaceous cells. The series is described as follows: Inhibition of human sebocyte proliferation in vitro. The note with it: tested at 10^-6, 10^-7 and 10^-8 M, vs vehicle-treated culture, read-out: ED50 (amount of compound necessary to inhibit the proliferation of sebaceous cells by 50%). In kind it is cell-based. How it is done: Sebaceous cells were isolated from adult human sebaceous glands by a combination of enzymatic and mechanical methods (Doran et al., Characterization of Human Cells In Vitro, J. Invest. Dermatol. 96:34-8 (1991)). The cells were cultured in Iscove's medium containing 10% fetal calf serum and 4 μg/ml dexamethasone on a layer of growth-arrested 3T3 mouse fibroblasts. Cells were plated in medium without the test compound and then given test compound in fresh medium, containing the test compound, every 48 hours. On the day of harvesting, the cultures were rinsed with 0.03% EDTA in PBS, to remove only the 3T3 fibroblasts, followed by incubation in 0.05% trypsin/0.03% EDTA. The cells were suspended, mixed vigorously to prepare a single cell suspension and counted in a hemocytometer.
Stock solutions of compounds were made up as 10^-2 M solutions in degassed 100% ethanol and stored at -20° C. in the dark. During experimental use, the solutions, which have been aliquoted, were brought to room temperature and used by diluting directly into complete medium to appropriate concentration.
The compounds were tested for the inhibition of proliferation of sebaceous cell growth in vitro at 10^-6, 10^-7 and 10^-8 M.
The results are summarized in Table III below as the amount of compound necessary to inhibit the proliferation of sebaceous cells by 50% (ED50) in nM as compared to a vehicle-treated culture.

As to `C[C@H](CC#CC(C)(O)C(F)(F)F)C1=CC[C@H]2/C(=C/C=C3C[C@@H](O)C[C@H](O)C3)CCC[C@]12C` (stereo partly drawn) [1,25(R,S)-Dihydroxy-16-ene-23-yne-26-trifluoro-19-nor-cholecalciferol], the EC50 in the series with HL-60 cells stood at 0.37 nM. This compound also yielded an IC50 in the series on HaCaT cells of 5.1 nM. Moreover, the MTD at 120 h in series [1] came out at 0.002 mg/kg.
Take `C=C1/C(=C\C=C2/CCC[C@]3(C)C([C@H](C)CC#CC(C)(O)C(F)(F)F)=CC[C@@H]23)C[C@@H](O)C[C@@H]1O` (stereo partly drawn) [1,25(R,S)-Dihydroxy-16-ene-23-yne-26-trifluoro-cholecalciferol]: in the series on HL-60 cells, the EC50 stood at 0.15 nM. In addition, the values for the IC50 in the series with HaCaT cells and in the series on sebaceous cells were 10 nM and 1 nM, respectively. Also, in series [1], the MTD at 120 h amounted to 0.001 mg/kg.
As to `C=C1/C(=C\C=C2/CCC[C@]3(C)[C@@H]([C@H](C)CCCC(C)(C)O)CC[C@@H]23)C[C@@H](O)C[C@@H]1O` [1,25-Dihydroxycholecalciferol, reference compound], in the series on HL-60 cells, the EC50 came to 8 nM.
Turning to `C=C1/C(=C\C=C2/CCC[C@]3(C)C([C@H](C)CC#CC(C)(O)C(F)(F)F)=CC[C@@H]23)C[C@@H](O)C[C@@H]1F` (stereo partly drawn) [1α-fluoro-25(R,S)-hydroxy-16-ene-23-yne-26-trifluoro-cholecalciferol], the EC50 in the series with HL-60 cells came out at 3.7 nM. For the same compound, the IC50 in the series with HaCaT cells amounted to 11 nM. Also, in series [1], the MTD at 120 h is 0.02 mg/kg.
For the compound `C=C1CC[C@H](O)C/C1=C/C=C1\CCC[C@]2(C)C([C@H](C)CC#CC(C)(O)C(F)(F)F)=CC[C@@H]12` (stereo partly drawn) [25(R,S)-Hydroxy-16-ene-23-yne-26-trifluoro-cholecalciferol], the EC50 with HL-60 cells is 160 nM. In the series with HaCaT cells, this compound registered an IC50 of 650 nM. In series [1], the MTD at 120 h amounted to 0.6 mg/kg.
